Legend:
[1] = system: rice; assay: Test B flood test rice; format: in vivo, Oryza sativa
Procedure, shortened: (§1)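 Read-out is a visual response score from 0 (no effect) to 10 (complete control), assigned by comparison with untreated controls. Treatment was applied at the 2-leaf stage, and plants stayed in the greenhouse for twelve to sixteen days before scoring.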

[2] = system: pigweed; assay: Test B pre/postemergence pigweed; format: in vivo, Amaranthus retroflexus
Procedure, shortened: (§2)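 Herbicidal effect was estimated by eye on a ten-point control scale after plants spent twelve to sixteen days in a greenhouse following soil or foliar treatment. Foliar sprays targeted plants at one to four leaves; all doses were formulated in a non-phytotoxic solvent with surfactant.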

[3] = system: bedstraw; assay: Test B pre/postemergence bedstraw; format: in vivo, Galium aparine
Procedure, shortened: as §2

[4] = system: velvetleaf; assay: Test B pre/postemergence velvetleaf; format: in vivo, Abutilon theophrasti
Procedure, shortened: as §2

[5] = system: cocklebur; assay: Test B pre/postemergence cocklebur; format: in vivo, Xanthium strumarium
Procedure, shortened: as §2

[6] = system: sugar beet; assay: Test B pre/postemergence sugar beet; format: in vivo, Beta vulgaris
Procedure, shortened: as §2

[7] = system: bamyardgrass; assay: Test B flood test barnyardgrass; format: in vivo, Echinochloa crus-galli
Procedure, shortened: as §1

[8] = system: giant foxtail; assay: Test B pre/postemergence giant foxtail; format: in vivo, Setaria faberii
Procedure, shortened: as §2

[9] = system: corn; assay: Test B pre/postemergence corn; format: in vivo, Zea mays
Procedure, shortened: as §2

[10] = system: duck salad; assay: Test B flood test duck salad; format: in vivo, Heteranthera limosa
Procedure, shortened: as §1

[11] = system: morningglory; assay: Test B pre/postemergence morningglory; format: in vivo, Ipomoea hederacea
Procedure, shortened: as §2

[12] = system: surinam grass; assay: Test B pre/postemergence surinam grass; format: in vivo, Brachiaria decumbens
Procedure, shortened: as §2

[13] = system: purple nutsedge; assay: Test B pre/postemergence purple nutsedge; format: in vivo, Cyperus rotundus
Procedure, shortened: as §2

[14] = system: blackgrass; assay: Test B pre/postemergence blackgrass; format: in vivo, Alopecurus myosuroides
Procedure, shortened: as §2

[15] = system: rape; assay: Test B pre/postemergence rape; format: in vivo, Brassica napus
Procedure, shortened: as §2

[16] = Rate 31 g/ha, Pre-emergence section (flood test species), scale 0 to 10
[17] = Rate 62 g/ha, headed Pre-emergence (flood test species), scale 0 to 10 (0 no effect, 10 complete control)
[18] = Rate 125 g/ha, Pre-emergence, flood test species, scale 0 to 10 where 0 is no effect and 10 is complete control
[19] = Rate 250 g/ha, Pre-emergence, flood-test species, scale 0 to 10, 0 is no effect, 10 is complete control
[20] = Postemergence, Rate 31 g/ha, visual rating, scale 0 to 10 (0 no effect, 10 complete control)
[21] = Preemergence, Rate 62 g/ha, scale of 0 to 10 where 0 is no effect and 10 is complete control
[22] = Preemergence, Rate 250 g/ha, scale of 0 to 10 where 0 is no effect and 10 is complete control
[23] = Rate 62 g/ha, Postemergence, scale 0 to 10 (0 no effect, 10 complete control)
[24] = Rate 125 g/ha, Postemergence, scale of 0 to 10 where 0 is no effect and 10 is complete control
[25] = Rate 125 g/ha, Preemergence, scale of 0 to 10 where 0 is no effect and 10 is complete control
[26] = Rate 250 g/ha, Postemergence, scale of 0 to 10 where 0 is no effect and 10 is complete control
[27] = Preemergence, Rate 31 g/ha, visual rating, scale 0 to 10 (0 no effect, 10 complete control)

Q: With `CC(C)N(C(=O)n1oc(=O)n(C(C)C)c1=O)c1cnccn1` [Compound 296] as the compound, how does the “Rice plant response rating” value [1, 16] read?
A: 0

Q: What about the “Rice plant response rating” value [1, 17] of the same compound?
A: 0

Q: What about the “Rice plant response rating” value [1, 18] of the same compound?
A: 0

Q: What about the “Rice plant response rating” value [1, 19] of the same compound?
A: 0

Q: What about the “Redroot pigweed plant response rating” value [2, 20] of the same compound?
A: 0

Q: And the “Redroot pigweed plant response rating” value [2, 21]?
A: 0

Q: What about the “Redroot pigweed plant response rating” value [2, 22] of the same compound?
A: 0

Q: And the “Redroot pigweed plant response rating” value [2, 23]?
A: 0

Q: What about the “Redroot pigweed plant response rating” value [2, 24] of the same compound?
A: 0

Q: What about the “Redroot pigweed plant response rating” value [2, 25] of the same compound?
A: 0

Q: What about the “Plant response rating, Redroot pigweed” value [2, 26] of the same compound?
A: 0

Q: And the “Bedstraw plant response rating” value [3, 20]?
A: 0

Q: And the “Bedstraw plant response rating” value [3, 27]?
A: 0

Q: What about the “Bedstraw plant response rating” value [3, 21] of the same compound?
A: 0

Q: And the “Bedstraw plant response rating” value [3, 22]?
A: 0

Q: What about the “Bedstraw plant response rating” value [3, 23] of the same compound?
A: 0

Q: What about the “Bedstraw plant response rating” value [3, 24] of the same compound?
A: 0

Q: And the “Bedstraw plant response rating” value [3, 25]?
A: 0

Q: What about the “Plant response rating, Bedstraw” value [3, 26] of the same compound?
A: 0

Q: And the “Velvetleaf plant response rating” value [4, 20]?
A: 0

Q: What about the “Velvetleaf plant response rating” value [4, 21] of the same compound?
A: 0

Q: And the “Velvetleaf plant response rating” value [4, 22]?
A: 0

Q: And the “Velvetleaf plant response rating” value [4, 23]?
A: 0

Q: And the “Velvetleaf plant response rating” value [4, 24]?
A: 0

Q: What about the “Velvetleaf plant response rating” value [4, 25] of the same compound?
A: 0

Q: And the “Plant response rating, Velvetleaf” value [4, 26]?
A: 0

Q: And the “Cocklebur plant response rating” value [5, 20]?
A: 0

Q: What about the “Cocklebur plant response rating” value [5, 27] of the same compound?
A: 0

Q: What about the “Cocklebur plant response rating” value [5, 21] of the same compound?
A: 0

Q: What about the “Cocklebur plant response rating” value [5, 22] of the same compound?
A: 0

Q: What about the “Cocklebur plant response rating” value [5, 23] of the same compound?
A: 0

Q: And the “Cocklebur plant response rating” value [5, 24]?
A: 0

Q: And the “Cocklebur plant response rating” value [5, 25]?
A: 0

Q: And the “Plant response rating, Cocklebur” value [5, 26]?
A: 0

Q: What about the “Sugarbeets plant response rating” value [6, 20] of the same compound?
A: 0

Q: And the “Sugarbeets plant response rating” value [6, 21]?
A: 0

Q: And the “Sugarbeets plant response rating” value [6, 22]?
A: 0

Q: What about the “Sugarbeets plant response rating” value [6, 23] of the same compound?
A: 0

Q: And the “Sugarbeets plant response rating” value [6, 24]?
A: 0

Q: What about the “Sugarbeets plant response rating” value [6, 25] of the same compound?
A: 0

Q: And the “Plant response rating, Sugarbeets” value [6, 26]?
A: 0

Q: What about the “Barnyardgrass plant response rating” value [7, 16] of the same compound?
A: 0

Q: And the “Barnyardgrass plant response rating” value [7, 17]?
A: 0

Q: And the “Barnyardgrass plant response rating” value [7, 18]?
A: 0

Q: What about the “Barnyardgrass plant response rating” value [7, 19] of the same compound?
A: 0

Q: And the “Giant foxtail plant response rating” value [8, 20]?
A: 0

Q: And the “Giant foxtail plant response rating” value [8, 27]?
A: 0

Q: And the “Giant foxtail plant response rating” value [8, 21]?
A: 0

Q: What about the “Giant foxtail plant response rating” value [8, 22] of the same compound?
A: 0

Q: And the “Giant foxtail plant response rating” value [8, 23]?
A: 0

Q: What about the “Giant foxtail plant response rating” value [8, 24] of the same compound?
A: 0

Q: And the “Giant foxtail plant response rating” value [8, 25]?
A: 0

Q: What about the “Plant response rating, Giant foxtail” value [8, 26] of the same compound?
A: 0

Q: And the “Corn plant response rating” value [9, 20]?
A: 0

Q: What about the “Corn plant response rating” value [9, 27] of the same compound?
A: 0

Q: What about the “Corn plant response rating” value [9, 21] of the same compound?
A: 0

Q: And the “Corn plant response rating” value [9, 22]?
A: 0

Q: And the “Corn plant response rating” value [9, 23]?
A: 0

Q: What about the “Corn plant response rating” value [9, 24] of the same compound?
A: 0

Q: And the “Corn plant response rating” value [9, 25]?
A: 0

Q: And the “Plant response rating, Corn” value [9, 26]?
A: 0

Q: And the “Ducksalad plant response rating” value [10, 16]?
A: 0

Q: What about the “Ducksalad plant response rating” value [10, 17] of the same compound?
A: 0

Q: And the “Ducksalad plant response rating” value [10, 18]?
A: 0

Q: What about the “Ducksalad plant response rating” value [10, 19] of the same compound?
A: 0

Q: What about the “Morningglory plant response rating” value [11, 20] of the same compound?
A: 0

Q: What about the “Morningglory plant response rating” value [11, 21] of the same compound?
A: 0

Q: And the “Morningglory plant response rating” value [11, 22]?
A: 0

Q: What about the “Morningglory plant response rating” value [11, 23] of the same compound?
A: 0

Q: What about the “Morningglory plant response rating” value [11, 24] of the same compound?
A: 0

Q: What about the “Morningglory plant response rating” value [11, 25] of the same compound?
A: 0

Q: And the “Plant response rating, Morningglory” value [11, 26]?
A: 1

Q: What about the “B. signalgrass plant response rating” value [12, 20] of the same compound?
A: 0

Q: What about the “B. signalgrass plant response rating” value [12, 27] of the same compound?
A: 0

Q: And the “B. signalgrass plant response rating” value [12, 21]?
A: 0

Q: What about the “B. signalgrass plant response rating” value [12, 22] of the same compound?
A: 0

Q: What about the “B. signalgrass plant response rating” value [12, 23] of the same compound?
A: 0

Q: What about the “B. signalgrass plant response rating” value [12, 24] of the same compound?
A: 0

Q: What about the “B. signalgrass plant response rating” value [12, 25] of the same compound?
A: 0

Q: And the “Plant response rating, B. signalgrass” value [12, 26]?
A: 0

Q: And the “Nutsedge plant response rating” value [13, 20]?
A: 0

Q: And the “Nutsedge plant response rating” value [13, 21]?
A: 0

Q: What about the “Nutsedge plant response rating” value [13, 23] of the same compound?
A: 0

Q: And the “Nutsedge plant response rating” value [13, 24]?
A: 0

Q: What about the “Nutsedge plant response rating” value [13, 25] of the same compound?
A: 0

Q: What about the “Plant response rating, Nutsedge” value [13, 26] of the same compound?
A: 0

Q: And the “Blackgrass plant response rating” value [14, 20]?
A: 0

Q: And the “Blackgrass plant response rating” value [14, 27]?
A: 0

Q: And the “Blackgrass plant response rating” value [14, 21]?
A: 0

Q: What about the “Blackgrass plant response rating” value [14, 22] of the same compound?
A: 0

Q: What about the “Blackgrass plant response rating” value [14, 23] of the same compound?
A: 0

Q: And the “Blackgrass plant response rating” value [14, 24]?
A: 0

Q: And the “Blackgrass plant response rating” value [14, 25]?
A: 0

Q: And the “Plant response rating, Blackgrass” value [14, 26]?
A: 0

Q: And the “Rape plant response rating” value [15, 20]?
A: 0

Q: And the “Rape plant response rating” value [15, 21]?
A: 0

Q: And the “Rape plant response rating” value [15, 22]?
A: 0

Q: And the “Rape plant response rating” value [15, 23]?
A: 0

Q: And the “Rape plant response rating” value [15, 24]?
A: 0

Q: What about the “Rape plant response rating” value [15, 25] of the same compound?
A: 0

Q: And the “Plant response rating, Rape” value [15, 26]?
A: 0

From patent publication US6737383B1, “Herbicidal oxadiazolidines” (priority 1999, dated 2004)
